Test system: proseodymium nitrate liver damage
Details: serum, 72 hours after 14 mg/kg praseodymnitrate i.v.; SMG1 140.5 mg/kg i.v. three days, MG1 40.5 mg/kg
Procedure: The liver-protectiveeffect of the SMG1 was tested on white rats, in that experimentally produced liver damage was antagonized by SMG1 treatment. The rats were injected with the SMG1- or MG1-dosages in 5 ml 0.9% NaCl solution, to which 4% of PVP (M.W. about 10,000) was added per kg of body weight. A dosage of 140.5 mg/kg SMG1 corresponds to 100 mg Silymarin and 40.5 mg 1-methylamino-glucose. When the test animals received 140.5 mg/kg SMG1, the control animals were treated with the equivalent dosage of 1-methylamino glucose, i.e. 40.5 mg/kg.
In another series of tests, antagonization of proseodymium nitrate liver damage by SMG1, measured by the reaction of the serum enzyme glutamate-oxalacetate-transaminase (GOT), glutamate-pyruvate-transaminase (GPT), sorbital-dehydrogenase (SDH) and alkaline phosphatases (AP), was employed as a measure of efficacy of the instant materials. […] The test animals, male Wistar rats weighing approximately 200 g, were treated for three days with 140.5 mg/kg SMG1 i.v. On the first testing day, all rats were damaged i.v. with 14 mg/kg praseodymnitrate one hour after the SMG1- or MG1- injection.

## 1-methylamino glucose [1-methylamino-glucose]
  AP (alkaline phosphatase): 168.0 mU/ml
  GOT: 360.6 mU/ml
  GPT: 118.4 mU/ml
  SDH: 32.0 mU/ml

Reference: patent US3994925A, “Salt of the silymarin group with aminopolyhydroxy alcohols” (Dr. Madaus & Co., priority 1973, dated 1976)
